Assay: xn = mol fraction of the nth substance listed
Settings: 101 kPa, Liquid

C=Cc1ccccc1 [styrene] + O=[N+]([O-])c1ccccc1
Settings	mass density [kg/m3]
293.15 K, x1 = 0.0536	1185.47
293.15 K, x1 = 0.1324	1160.15
293.15 K, x1 = 0.1909	1141.63
293.15 K, x1 = 0.2564	1121.18
293.15 K, x1 = 0.3257	1099.86
293.15 K, x1 = 0.3986	1077.76
293.15 K, x1 = 0.4576	1060.12
293.15 K, x1 = 0.5243	1040.42
293.15 K, x1 = 0.5888	1021.61
293.15 K, x1 = 0.6424	1006.13
293.15 K, x1 = 0.7156	985.23
293.15 K, x1 = 0.7756	968.27
293.15 K, x1 = 0.8324	952.34
293.15 K, x1 = 0.8755	940.34
293.15 K, x1 = 0.9424	921.83
293.15 K, x1 = 1	906
303.15 K, x1 = 0.0621	1173.19
303.15 K, x1 = 0.1248	1152.93
303.15 K, x1 = 0.1822	1134.64
303.15 K, x1 = 0.2429	1115.56
303.15 K, x1 = 0.3139	1093.59
303.15 K, x1 = 0.3571	1080.39
303.15 K, x1 = 0.4249	1059.93
303.15 K, x1 = 0.4819	1042.96
303.15 K, x1 = 0.5487	1023.33
303.15 K, x1 = 0.5901	1011.29
303.15 K, x1 = 0.6528	993.23
303.15 K, x1 = 0.7289	971.58
303.15 K, x1 = 0.7913	954.03
303.15 K, x1 = 0.8592	935.12
303.15 K, x1 = 0.9368	913.72
303.15 K, x1 = 1	896.44
313.15 K, x1 = 0.0492	1167.15
313.15 K, x1 = 0.1189	1144.52
313.15 K, x1 = 0.1898	1121.9
313.15 K, x1 = 0.2563	1101.03
313.15 K, x1 = 0.3398	1075.31
313.15 K, x1 = 0.4018	1056.54
313.15 K, x1 = 0.4621	1038.54
313.15 K, x1 = 0.5243	1020.21
313.15 K, x1 = 0.5811	1003.69
313.15 K, x1 = 0.6421	986.16
313.15 K, x1 = 0.7132	965.98
313.15 K, x1 = 0.7723	949.39
313.15 K, x1 = 0.8421	930.01
313.15 K, x1 = 0.8942	915.68
313.15 K, x1 = 0.9524	899.79
313.15 K, x1 = 1	886.88
323.15 K, x1 = 0.0598	1152.7
323.15 K, x1 = 0.1329	1129.06
323.15 K, x1 = 0.1942	1109.58
323.15 K, x1 = 0.2458	1093.41
323.15 K, x1 = 0.3239	1069.35
323.15 K, x1 = 0.3891	1049.61
323.15 K, x1 = 0.4314	1036.97
323.15 K, x1 = 0.5028	1015.92
323.15 K, x1 = 0.5622	998.67
323.15 K, x1 = 0.6321	978.64
323.15 K, x1 = 0.6873	963.03
323.15 K, x1 = 0.7419	947.74
323.15 K, x1 = 0.8054	930.15
323.15 K, x1 = 0.8823	909.1
323.15 K, x1 = 0.9339	895.1
323.15 K, x1 = 1	877.32
333.15 K, x1 = 0.0647	1139.39
333.15 K, x1 = 0.1278	1119.07
333.15 K, x1 = 0.1825	1101.73
333.15 K, x1 = 0.2542	1079.38
333.15 K, x1 = 0.3183	1059.76
333.15 K, x1 = 0.3798	1041.24
333.15 K, x1 = 0.4248	1027.86
333.15 K, x1 = 0.4892	1008.97
333.15 K, x1 = 0.5329	996.32
333.15 K, x1 = 0.5892	980.2
333.15 K, x1 = 0.6379	966.41
333.15 K, x1 = 0.7132	945.37
333.15 K, x1 = 0.7987	921.85
333.15 K, x1 = 0.868	903.04
333.15 K, x1 = 0.9468	881.9
333.15 K, x1 = 1	867.76
343.15 K, x1 = 0.0687	1125.66
343.15 K, x1 = 0.1139	1111.2
343.15 K, x1 = 0.1842	1089.06
343.15 K, x1 = 0.2389	1072.13
343.15 K, x1 = 0.3234	1046.47
343.15 K, x1 = 0.3894	1026.81
343.15 K, x1 = 0.4346	1013.54
343.15 K, x1 = 0.4903	997.4
343.15 K, x1 = 0.5538	979.25
343.15 K, x1 = 0.614	962.29
343.15 K, x1 = 0.6622	948.88
343.15 K, x1 = 0.7319	929.71
343.15 K, x1 = 0.7922	913.35
343.15 K, x1 = 0.8531	896.99
343.15 K, x1 = 0.9234	878.32
343.15 K, x1 = 1	858.2
353.15 K, x1 = 0.055	1116.88
353.15 K, x1 = 0.1376	1090.79
353.15 K, x1 = 0.1726	1079.91
353.15 K, x1 = 0.2389	1059.6
353.15 K, x1 = 0.302	1040.61
353.15 K, x1 = 0.3791	1017.85
353.15 K, x1 = 0.4349	1001.66
353.15 K, x1 = 0.5139	979.13
353.15 K, x1 = 0.5628	965.4
353.15 K, x1 = 0.6249	948.19
353.15 K, x1 = 0.6733	934.94
353.15 K, x1 = 0.7234	921.37
353.15 K, x1 = 0.7981	901.38
353.15 K, x1 = 0.8621	884.47
353.15 K, x1 = 0.9412	863.83
353.15 K, x1 = 1	848.64

O=[N+]([O-])c1ccccc1 [nitrobenzene] + c1ccccc1
Settings	mass density [kg/m3]
293.15 K, x2 = 0	1202.95
293.15 K, x2 = 0.0532	1187.99
293.15 K, x2 = 0.1189	1169.24
293.15 K, x2 = 0.1842	1150.3
293.15 K, x2 = 0.2479	1131.5
293.15 K, x2 = 0.3012	1115.52
293.15 K, x2 = 0.3581	1098.17
293.15 K, x2 = 0.425	1077.37
293.15 K, x2 = 0.4891	1057.04
293.15 K, x2 = 0.5311	1043.49
293.15 K, x2 = 0.6023	1020.07
293.15 K, x2 = 0.6521	1003.34
293.15 K, x2 = 0.7198	980.14
293.15 K, x2 = 0.7811	958.64
293.15 K, x2 = 0.8534	932.66
293.15 K, x2 = 0.9212	907.66
303.15 K, x2 = 0	1193.56
303.15 K, x2 = 0.0612	1176.18
303.15 K, x2 = 0.1384	1153.92
303.15 K, x2 = 0.1732	1143.76
303.15 K, x2 = 0.2543	1119.7
303.15 K, x2 = 0.3132	1101.89
303.15 K, x2 = 0.3821	1080.7
303.15 K, x2 = 0.4422	1061.84
303.15 K, x2 = 0.4922	1045.9
303.15 K, x2 = 0.5543	1025.75
303.15 K, x2 = 0.6123	1006.56
303.15 K, x2 = 0.6831	982.62
303.15 K, x2 = 0.7534	958.28
303.15 K, x2 = 0.8113	937.78
303.15 K, x2 = 0.8713	916.1
303.15 K, x2 = 0.9378	891.52
313.15 K, x2 = 0	1183.37
313.15 K, x2 = 0.0522	1168.46
313.15 K, x2 = 0.1234	1147.88
313.15 K, x2 = 0.1923	1127.63
313.15 K, x2 = 0.2612	1107.04
313.15 K, x2 = 0.3122	1091.57
313.15 K, x2 = 0.3723	1073.06
313.15 K, x2 = 0.4234	1057.08
313.15 K, x2 = 0.4865	1037.03
313.15 K, x2 = 0.5382	1020.3
313.15 K, x2 = 0.6032	998.9
313.15 K, x2 = 0.6632	978.75
313.15 K, x2 = 0.7219	958.66
313.15 K, x2 = 0.7932	933.72
313.15 K, x2 = 0.8428	916.03
313.15 K, x2 = 0.9247	886.12
323.15 K, x2 = 0	1172.38
323.15 K, x2 = 0.0479	1158.64
323.15 K, x2 = 0.1387	1132.24
323.15 K, x2 = 0.1842	1118.82
323.15 K, x2 = 0.2487	1099.55
323.15 K, x2 = 0.3286	1075.26
323.15 K, x2 = 0.392	1055.64
323.15 K, x2 = 0.435	1042.13
323.15 K, x2 = 0.5023	1020.68
323.15 K, x2 = 0.543	1007.49
323.15 K, x2 = 0.592	991.42
323.15 K, x2 = 0.6633	967.59
323.15 K, x2 = 0.7328	943.85
323.15 K, x2 = 0.7931	922.82
323.15 K, x2 = 0.8538	901.23
323.15 K, x2 = 0.9423	868.96
333.15 K, x2 = 0	1160.59
333.15 K, x2 = 0.0501	1146.17
333.15 K, x2 = 0.1421	1119.35
333.15 K, x2 = 0.1924	1104.47
333.15 K, x2 = 0.2517	1086.72
333.15 K, x2 = 0.3184	1066.47
333.15 K, x2 = 0.3618	1053.11
333.15 K, x2 = 0.4248	1033.47
333.15 K, x2 = 0.4921	1012.12
333.15 K, x2 = 0.5524	992.65
333.15 K, x2 = 0.6013	976.62
333.15 K, x2 = 0.664	955.73
333.15 K, x2 = 0.723	935.71
333.15 K, x2 = 0.7813	915.56
333.15 K, x2 = 0.8342	896.97
333.15 K, x2 = 0.9234	864.89
343.15 K, x2 = 0	1148
343.15 K, x2 = 0.0632	1129.76
343.15 K, x2 = 0.1567	1102.42
343.15 K, x2 = 0.219	1083.91
343.15 K, x2 = 0.2678	1069.26
343.15 K, x2 = 0.3347	1048.9
343.15 K, x2 = 0.3972	1029.6
343.15 K, x2 = 0.4581	1010.51
343.15 K, x2 = 0.5124	993.23
343.15 K, x2 = 0.5639	976.61
343.15 K, x2 = 0.6384	952.15
343.15 K, x2 = 0.7038	930.24
343.15 K, x2 = 0.7598	911.15
343.15 K, x2 = 0.8234	889.07
343.15 K, x2 = 0.8824	868.19
343.15 K, x2 = 0.9423	846.61
